This note sets out measurements from patent US10118947B2, “Modulation of structured polypeptide specificity” (BICYCLE THERAPEUTICS LIMITED, priority 2013, dated 2018).

The assay concerns the target T1, human plasma Kallikrein (Homo sapiens, UniProt P03952).
T1 construct: purchased Stratech, UK
Nature of the assay: Functional enzyme inhibition assay with fluorogenic substrate Z-PheArg-AMC, human plasma Kallikrein. In kind it is biochemical. On the procedure: Functional enzyme assays were conducted in 10 mM Tris HCl, 150 mM NaCl, 10 mM MgCl2, 1 mM CaCl2) and 1 mg/mL BSA (all Sigma UK) pH7.4 at 25° C. in solid black 96 well plates. Briefly 26.5 pM human plasma Kallikrein (purchased from Stratech, UK) or 500 pM rat plasma Kallikrein (expressed and purified in house) were incubated in the absence or presence of increasing concentrations of test peptide for 15 minutes before addition of the fluorogenic substrate Z-PheArg-AMC (Enzo Lifesciences UK) to a final assay concentration of 100 μM in 4% DMSO. Release of AMC was measured using a Pherastar FS (BMG Labtech), excitation 360 nm, emission 460 nm. The rate of the linear phase of the reaction, typically 5 to 45 minutes, was calculated in MARS data analysis software (BMG labtech). The rate was then used to calculate the IC50 and Ki in Prism (GraphPad). A four parameter inhibition non-linear regression equation was used to calculate the IC50.
Peptides were dissolved as the TFA-salts in their powder form, and stock solutions were usually prepared in water. All solutions were centrifuged and filtered ([…] syringe filters) prior absorption measurement at 280 nm. […] For peptides containing non-natural amino acids with suspected chromophoric properties (i.e. NorHar, 4PhenylPro, 3Pal, 4Pal, Tic, 4GuanPhe, 4,4-BPAI, 3,3-DPA, 1NAI, 2NAI, 4BenzylPro, Ind) concentrations were determined by weighing the powder and dissolving the peptide in a defined quantity of water.

[1] abbreviates: Table 3c, D-Alanine scan in Loop2, read-out: Ki.
[2] abbreviates: Table 3c, ratio of Ki to wild type.
The mark [3] stands for this setting: Table 24b, residue 7 modifications, read-out: Ki.
The mark [4] stands for this setting: Table 24b, ratio of Ki to wild type.
[5] abbreviates: Table 24c, residue 8 modifications, read-out: Ki.
The mark [6] stands for this setting: Table 24c, ratio of Ki to wild type.
Where [7] appears, read: Table 24a, residue 6 modification in the context of Ac-(06-34-18) Phe2 Tyr4, read-out: Ki (nM) Ac-(06-34-18) Phe2 Tyr4.

Like-named read-outs stand apart in the source and are kept apart here. Numbered stars: 1 amine (or outer) side, 2 acyl side, 3 side chain; on linkers, the order of the positions; unused ones are H or OH. Bridge positions count the residues as written; N and C are the ends. Square brackets hold non-standard residues; d marks the D form. Peptide text beside a SMILES is read from it. Gly(N-CH2CH2-imidazol-4-yl) = O=C(O)CNCCc1c[nH]cn1; His(τ-Me) = Cn1cnc(C[C@H](N)C(=O)O)c1; TBMB = c1c(C[*:1])cc(C[*:3])cc1C[*:2]; His(π-Me) = Cn1cncc1C[C@H](N)C(=O)O; 2Thi = N[C@@H](Cc1cccs1)C(=O)O; Dap = NC[C@H](N)C(=O)O

T1 sequence (P03952 20-638): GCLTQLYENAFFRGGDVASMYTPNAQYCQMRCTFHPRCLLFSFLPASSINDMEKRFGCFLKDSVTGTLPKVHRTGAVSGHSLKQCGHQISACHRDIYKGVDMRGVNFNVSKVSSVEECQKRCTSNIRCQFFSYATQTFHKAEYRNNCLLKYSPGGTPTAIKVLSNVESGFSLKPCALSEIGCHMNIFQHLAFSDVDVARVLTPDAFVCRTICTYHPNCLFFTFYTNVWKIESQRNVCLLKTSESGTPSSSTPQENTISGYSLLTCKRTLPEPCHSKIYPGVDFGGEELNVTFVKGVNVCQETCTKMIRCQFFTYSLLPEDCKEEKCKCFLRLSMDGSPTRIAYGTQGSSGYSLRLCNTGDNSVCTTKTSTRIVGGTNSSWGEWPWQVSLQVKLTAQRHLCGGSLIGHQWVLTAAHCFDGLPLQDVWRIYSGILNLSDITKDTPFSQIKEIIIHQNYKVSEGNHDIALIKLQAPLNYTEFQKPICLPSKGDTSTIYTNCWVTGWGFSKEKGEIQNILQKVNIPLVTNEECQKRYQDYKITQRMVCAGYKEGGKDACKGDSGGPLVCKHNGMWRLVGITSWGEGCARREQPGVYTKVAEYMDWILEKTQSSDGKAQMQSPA

For `CC(=O)N[C@H]1CSCc2cc3cc(c2)CSC[C@H](NC(=O)[C@H](CCCNC(=N)N)NC(=O)[C@H](Cc2ccc(O)cc2)NC(=O)[C@@H]2CCCN2C(=O)[C@H](Cc2ccccc2)NC(=O)[C@H](CO)NC1=O)C(=O)N[C@@H](CC(C)C)C(=O)N[C@@H](Cc1c[nH]cn1)C(=O)N[C@H](C)C(=O)N[C@@H](CC(=O)O)C(=O)N[C@@H](CC(C)C)C(=O)N[C@H](C(N)=O)CSC3` [Ac-(06-34-18) Phe2 Tyr4 D-Ala8] (Ac-CSFPYRCLH[dA]DLC-NH2; linker 1-7-13 via TBMB), the Ki (as a rule, the equilibrium dissociation constant of an inhibitor or competing ligand from its target) under setting [1] came out at 243 nM. Further, the “F (Kivar/KiWT)” value under setting [2] worked out at 578.
As to `CC(=O)N[C@H]1CSCc2cc3cc(c2)CSC[C@H](NC(=O)[C@H](CCCNC(=N)N)NC(=O)[C@H](Cc2ccc(O)cc2)NC(=O)[C@@H]2CCCN2C(=O)[C@H](Cc2ccccc2)NC(=O)[C@H](CO)NC1=O)C(=O)N[C@@H](CC(C)C)C(=O)N[C@@H](Cc1c[nH]cn1)C(=O)N[C@@H](CCC(N)=O)C(=O)N[C@H](C)C(=O)N[C@@H](CC(C)C)C(=O)N[C@H](C(N)=O)CSC3` [Ac-(06-34-18) Phe2 Tyr4 D-Ala9] (Ac-CSFPYRCLHQ[dA]LC-NH2; linker 1-7-13 via TBMB), the Ki under setting [1] came out at 19.9 nM. Moreover, under setting [2], the “F (Kivar/KiWT)” value turned out to be 47.
Consider `CC(=O)N[C@H]1CSCc2cc3cc(c2)CSC[C@H](NC(=O)[C@H](CCCNC(=N)N)NC(=O)[C@H](Cc2ccc(O)cc2)NC(=O)[C@@H]2CCCN2C(=O)[C@H](Cc2ccccc2)NC(=O)[C@H](CO)NC1=O)C(=O)N[C@@H](CC(C)C)C(=O)N[C@@H](Cc1c[nH]cn1)C(=O)N[C@@H](CCC(N)=O)C(=O)N[C@@H](CC(=O)O)C(=O)N[C@H](C)C(=O)N[C@H](C(N)=O)CSC3` [Ac-(06-34-18) Phe2 Tyr4 D-Ala10] (Ac-CSFPYRCLHQD[dA]C-NH2; linker 1-7-13 via TBMB), for which the Ki under setting [1] was 572 nM. Further, the “F (Kivar/KiWT)” value under setting [2] was found to be 1362.
For `CC(=O)N[C@H]1CSCc2cc3cc(c2)CSC[C@H](NC(=O)[C@H](CCCNC(=N)N)NC(=O)[C@H](Cc2ccc(O)cc2)NC(=O)[C@@H]2CCCN2C(=O)[C@H](Cc2ccccc2)NC(=O)[C@H](CO)NC1=O)C(=O)N[C@@H](CC(C)C)C(=O)N[C@@H](CN)C(=O)N[C@@H](CCC(N)=O)C(=O)N[C@@H](CC(=O)O)C(=O)N[C@@H](CC(C)C)C(=O)N[C@H](C(N)=O)CSC3` [Ac-(06-34-18) Phe2 Tyr4 Dap7] (Ac-CSFPYRCL[Dap]QDLC-NH2; linker 1-7-13 via TBMB), the Ki under setting [3] stood at 246 nM. Also, the “F (Kivar/KiWT)” value under setting [4] is 586.
As for `CC(=O)N[C@H]1CSCc2cc3cc(c2)CSC[C@H](NC(=O)[C@H](CCCNC(=N)N)NC(=O)[C@H](Cc2ccc(O)cc2)NC(=O)[C@@H]2CCCN2C(=O)[C@H](Cc2ccccc2)NC(=O)[C@H](CO)NC1=O)C(=O)N[C@@H](CC(C)C)C(=O)N[C@@H](Cc1c[nH]cn1)C(=O)N[C@@H](CN)C(=O)N[C@@H](CC(=O)O)C(=O)N[C@@H](CC(C)C)C(=O)N[C@H](C(N)=O)CSC3` [Ac-(06-34-18) Phe2 Tyr4 Dap8] (Ac-CSFPYRCLH[Dap]DLC-NH2; linker 1-7-13 via TBMB), under setting [5], the Ki amounted to 5.49 nM. Moreover, the “F (Kivar/KiWT)” value under setting [6] is 13.
Regarding `CC(=O)N[C@H]1CSCc2cc3cc(c2)CSC[C@H](NC(=O)[C@H](CCCNC(=N)N)NC(=O)[C@H](Cc2ccc(O)cc2)NC(=O)[C@@H]2CCCN2C(=O)[C@H](Cc2ccccc2)NC(=O)[C@H](CO)NC1=O)C(=O)N[C@@H](CC(C)C)C(=O)N[C@@H](Cc1c[nH]cn1)C(=O)N[C@@H](CCC(=O)O)C(=O)N[C@@H](CC(=O)O)C(=O)N[C@@H](CC(C)C)C(=O)N[C@H](C(N)=O)CSC3` [Ac-(06-34-18) Phe2 Tyr4 Glu8] (Ac-CSFPYRCLHEDLC-NH2; linker 1-7-13 via TBMB), the Ki under setting [5] stood at 2.53 nM. The “F (Kivar/KiWT)” value under setting [6] came to 6.
As for `CC(=O)N[C@H]1CSCc2cc3cc(c2)CSC[C@H](NC(=O)[C@H](CCCNC(=N)N)NC(=O)[C@H](Cc2ccc(O)cc2)NC(=O)[C@@H]2CCCN2C(=O)[C@H](Cc2ccccc2)NC(=O)[C@H](CO)NC1=O)C(=O)N[C@@H](CC(C)C)C(=O)N[C@@H](Cc1cn(C)cn1)C(=O)N[C@@H](CCC(N)=O)C(=O)N[C@@H](CC(=O)O)C(=O)N[C@@H](CC(C)C)C(=O)N[C@H](C(N)=O)CSC3` [Ac-(06-34-18) Phe2 Tyr4 His1Me7] (Ac-CSFPYRCL[His(τ-Me)]QDLC-NH2; linker 1-7-13 via TBMB), the Ki under setting [3] is 10 nM. Also, the “F (Kivar/KiWT)” value under setting [4] was 23.
In the case of `CC(=O)N[C@H]1CSCc2cc3cc(c2)CSC[C@H](NC(=O)[C@H](CCCNC(=N)N)NC(=O)[C@H](Cc2ccc(O)cc2)NC(=O)[C@@H]2CCCN2C(=O)[C@H](Cc2ccccc2)NC(=O)[C@H](CO)NC1=O)C(=O)N[C@@H](CC(C)C)C(=O)N[C@@H](Cc1cncn1C)C(=O)N[C@@H](CCC(N)=O)C(=O)N[C@@H](CC(=O)O)C(=O)N[C@@H](CC(C)C)C(=O)N[C@H](C(N)=O)CSC3` [Ac-(06-34-18) Phe2 Tyr4 His3Me7] (Ac-CSFPYRCL[His(π-Me)]QDLC-NH2; linker 1-7-13 via TBMB), the Ki under setting [3] stood at 292 nM. Under setting [4], the “F (Kivar/KiWT)” value turned out to be 696.
As for `CC[C@H](C)[C@@H]1NC(=O)[C@@H]2CSCc3cc(cc(c3)CSC[C@H](NC(C)=O)C(=O)N[C@@H](CO)C(=O)N[C@@H](Cc3ccccc3)C(=O)N3CCC[C@H]3C(=O)N[C@@H](Cc3ccc(O)cc3)C(=O)N[C@@H](CCCNC(=N)N)C(=O)N2)CSC[C@@H](C(N)=O)NC(=O)[C@H](CC(C)C)NC(=O)[C@H](CC(=O)O)NC(=O)[C@H](CCC(N)=O)NC(=O)[C@H](Cc2c[nH]cn2)NC1=O` [Ac-(06-34-18) Phe2 Tyr4 Ile6] (Ac-CSFPYRCIHQDLC-NH2; linker 1-7-13 via TBMB), under setting [7], the Ki was found to be 1.46 nM.
In the case of `CC(=O)N[C@H]1CSCc2cc3cc(c2)CSC[C@H](NC(=O)[C@H](CCCNC(=N)N)NC(=O)[C@H](Cc2ccc(O)cc2)NC(=O)[C@@H]2CCCN2C(=O)[C@H](Cc2ccccc2)NC(=O)[C@H](CO)NC1=O)C(=O)N[C@@H](CC(C)C)C(=O)N(CCc1c[nH]cn1)CC(=O)N[C@@H](CCC(N)=O)C(=O)N[C@@H](CC(=O)O)C(=O)N[C@@H](CC(C)C)C(=O)N[C@H](C(N)=O)CSC3` [Ac-(06-34-18) Phe2 Tyr4 N-His7] (Ac-CSFPYRCL[Gly(N-CH2CH2-imidazol-4-yl)]QDLC-NH2; linker 1-7-13 via TBMB), the “F (Kivar/KiWT)” value (Table 25b, fold change of Ki of variant compared to WT) is given as 519. Besides, the Ki (Table 25b, peptide backbone modifications in Loop2, human plasma kallikrein, read-out: Ki) was found to be 218 nM.
`CC(=O)N[C@H]1CSCc2cc3cc(c2)CSC[C@H](NC(=O)[C@H](CCCNC(=N)N)NC(=O)[C@H](Cc2ccc(O)cc2)NC(=O)[C@@H]2CCCN2C(=O)[C@H](Cc2ccccc2)NC(=O)[C@H](CO)NC1=O)C(=O)N[C@@H](Cc1ccccc1)C(=O)N[C@@H](Cc1c[nH]cn1)C(=O)N[C@@H](CCC(N)=O)C(=O)N[C@@H](CC(=O)O)C(=O)N[C@@H](CC(C)C)C(=O)N[C@H](C(N)=O)CSC3` [Ac-(06-34-18) Phe2 Tyr4 Phe6] (Ac-CSFPYRCFHQDLC-NH2; linker 1-7-13 via TBMB): the Ki under setting [7] is 14.9 nM.
As to `CC(=O)N[C@H]1CSCc2cc3cc(c2)CSC[C@H](NC(=O)[C@H](CCCNC(=N)N)NC(=O)[C@H](Cc2ccc(O)cc2)NC(=O)[C@@H]2CCCN2C(=O)[C@H](Cc2ccccc2)NC(=O)[C@H](CO)NC1=O)C(=O)N[C@@H](CC(C)C)C(=O)N[C@@H](Cc1ccccc1)C(=O)N[C@@H](CCC(N)=O)C(=O)N[C@@H](CC(=O)O)C(=O)N[C@@H](CC(C)C)C(=O)N[C@H](C(N)=O)CSC3` [Ac-(06-34-18) Phe2 Tyr4 Phe7] (Ac-CSFPYRCLFQDLC-NH2; linker 1-7-13 via TBMB), under setting [3], the Ki was found to be 43 nM. The “F (Kivar/KiWT)” value under setting [4] was found to be 102.
Regarding `CC(=O)N[C@H]1CSCc2cc3cc(c2)CSC[C@H](NC(=O)[C@H](CCCNC(=N)N)NC(=O)[C@H](Cc2ccc(O)cc2)NC(=O)[C@@H]2CCCN2C(=O)[C@H](Cc2ccccc2)NC(=O)[C@H](CO)NC1=O)C(=O)N[C@@H](CC(C)C)C(=O)N[C@@H](Cc1cccs1)C(=O)N[C@@H](CCC(N)=O)C(=O)N[C@@H](CC(=O)O)C(=O)N[C@@H](CC(C)C)C(=O)N[C@H](C(N)=O)CSC3` [Ac-(06-34-18) Phe2 Tyr4 Thi7] (Ac-CSFPYRCL[2Thi]QDLC-NH2; linker 1-7-13 via TBMB), the Ki under setting [3] came out at 34 nM. In addition, the “F (Kivar/KiWT)” value under setting [4] stood at 80.
`CC(=O)N[C@H]1CSCc2cc3cc(c2)CSC[C@H](NC(=O)[C@H](CCCNC(=N)N)NC(=O)[C@H](Cc2ccc(O)cc2)NC(=O)[C@@H]2CCCN2C(=O)[C@H](Cc2ccccc2)NC(=O)[C@H](CO)NC1=O)C(=O)N[C@@H](CC(C)C)C(=O)N[C@@H]([C@@H](C)O)C(=O)N[C@@H]([C@@H](C)O)C(=O)N[C@@H](CCC(=O)O)C(=O)N[C@@H](CC(C)C)C(=O)N[C@H](C(N)=O)CSC3` [Ac-(06-34-18) Phe2 Tyr4 Thr7 Thr8 Glu9] (Ac-CSFPYRCLTTELC-NH2; linker 1-7-13 via TBMB): the “F (Kivar/KiWT)” value under setting [6] is listed as 193.
